From patent US12540143B2, “Methods and compositions for targeted protein degradation” (Ranok Therapeutics (Hangzhou) Co. Ltd., priority 2019, dated 2026)

How the values were obtained:
BRD4 = target: T1, BRD4 (Homo sapiens, UniProt O60885); assay: BRD4 Degradation Flow Cytometry Assay in MV4-11 cells; format: cell-based; conditions: MV4-11 cells; for Percentage BRD4 degradation vs untreated / BRD4 (% of control): 24 hr; for Percentage BRD4 degradation vs untreated: highest degradation percentage observed at concentrations between 40-1000 nM; for BRD4 degradation (in words): flow cytometry
T1 construct: endogenous in cells; host or cells: MV4-11
Method: Protein Degradation Flow Cytometry
(§1) MV4-11 cells were plated in a 24-well tissue culture plate at a density of 350,000 cells/450 μL/well and incubated in 37° C./5% CO2 for 1 hr. Cells were then treated with compounds at various concentrations and incubated in 37° C./5% CO2 for 24 hr. Cells were harvested, washed once, counted and 200 μL of 1% paraformaldehyde/PBS was added and incubated for 15 min at room temperature. 200 μL of 1×PBS/0.4% Triton X-100 was added and incubated for 15 min at 4° C. Cells were washed three times and resuspended in 50 μL of 1×PBS/0.2% Triton X-100. 2 μL/10^6 cells of anti-BRD4 antibody (ABCAM, #128874) was added and mixed by pipetting up and down. Cells were incubated for 30 min at room temperature in the dark, washed three times and resuspended in 50 μL of 1×PBS/0.2% Triton X-100. Goat anti-rabbit IgG H&L antibody (1:2000 dilution) was added and mixed by pipetting up and down and incubated for 30 min at room temperature in the dark. Finally, cells were washed three times and resuspended in 200 μL of PBS for flow cytometric analysis.

BRD2 = target: T2, BRD2 (Homo sapiens, UniProt P25440); assay: BET Protein Family Degradation Flow Cytometry Assay (BRD2) in MV4-11 cells; format: cell-based; conditions: 24 hr
T2 construct: endogenous in cells; host or cells: MV4-11
T2 sequence (P25440 whole entry): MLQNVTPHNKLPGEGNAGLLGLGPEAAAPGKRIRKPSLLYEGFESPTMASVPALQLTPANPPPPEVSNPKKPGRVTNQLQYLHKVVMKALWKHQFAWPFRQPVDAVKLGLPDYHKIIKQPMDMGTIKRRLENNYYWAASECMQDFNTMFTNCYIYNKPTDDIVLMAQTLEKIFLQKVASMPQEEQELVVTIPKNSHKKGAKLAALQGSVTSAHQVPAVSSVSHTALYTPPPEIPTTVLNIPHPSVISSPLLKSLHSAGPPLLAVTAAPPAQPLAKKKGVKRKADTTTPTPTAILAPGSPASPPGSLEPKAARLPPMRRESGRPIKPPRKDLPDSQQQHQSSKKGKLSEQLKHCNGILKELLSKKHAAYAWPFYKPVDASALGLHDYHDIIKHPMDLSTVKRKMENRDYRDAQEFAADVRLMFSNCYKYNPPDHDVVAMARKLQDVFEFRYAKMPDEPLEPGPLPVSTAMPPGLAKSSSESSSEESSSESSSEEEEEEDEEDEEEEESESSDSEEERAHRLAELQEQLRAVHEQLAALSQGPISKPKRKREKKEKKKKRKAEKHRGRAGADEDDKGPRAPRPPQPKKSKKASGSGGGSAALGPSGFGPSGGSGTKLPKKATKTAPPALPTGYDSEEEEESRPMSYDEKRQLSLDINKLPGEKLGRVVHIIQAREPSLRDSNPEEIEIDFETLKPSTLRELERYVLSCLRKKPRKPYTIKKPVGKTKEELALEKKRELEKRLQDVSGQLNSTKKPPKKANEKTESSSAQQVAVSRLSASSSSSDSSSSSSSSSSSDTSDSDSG
Method: as §1
(§2) Similar western blotting experiments of for BRD2 and BRD3 were performed in MV4-11 cells using anti-BRD2 (Cell Signaling Technology, #139690) and anti-BRD3 (Cell Signaling Technology, #50818).

BRD3 = target: T3, BRD3 (Homo sapiens, UniProt Q15059); assay: BET Protein Family Degradation Flow Cytometry Assay (BRD3) in MV4-11 cells; format: cell-based; conditions: 24 hr
T3 construct: endogenous in cells; host or cells: MV4-11
T3 sequence (Q15059 whole entry): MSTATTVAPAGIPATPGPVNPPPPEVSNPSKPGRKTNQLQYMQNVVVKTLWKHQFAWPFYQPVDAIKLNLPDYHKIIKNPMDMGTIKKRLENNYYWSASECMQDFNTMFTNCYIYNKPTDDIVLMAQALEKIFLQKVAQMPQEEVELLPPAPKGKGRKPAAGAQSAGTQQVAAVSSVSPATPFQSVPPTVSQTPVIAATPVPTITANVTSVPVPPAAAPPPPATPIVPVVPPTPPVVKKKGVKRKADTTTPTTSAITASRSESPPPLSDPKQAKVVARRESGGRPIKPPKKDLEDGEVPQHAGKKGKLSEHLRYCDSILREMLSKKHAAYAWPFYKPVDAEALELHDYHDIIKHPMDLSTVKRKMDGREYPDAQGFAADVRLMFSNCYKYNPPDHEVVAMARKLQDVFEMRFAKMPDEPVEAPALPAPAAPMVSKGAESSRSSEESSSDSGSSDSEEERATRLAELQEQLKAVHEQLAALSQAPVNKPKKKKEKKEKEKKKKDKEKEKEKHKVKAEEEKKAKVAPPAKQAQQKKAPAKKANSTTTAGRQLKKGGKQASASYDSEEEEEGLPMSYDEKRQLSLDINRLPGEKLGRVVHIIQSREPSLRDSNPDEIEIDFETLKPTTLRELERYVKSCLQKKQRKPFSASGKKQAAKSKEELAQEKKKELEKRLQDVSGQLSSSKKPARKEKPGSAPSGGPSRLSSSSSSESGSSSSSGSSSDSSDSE
Method: as §1, §2

MV4-11 cells = assay: MV4-11 Cytotoxicity Assay; format: cell-based, human; conditions: Homo sapiens, MV4-11; 72 hr, CCK-8; read-out: MV4-11 cytotoxicity
[1] = system: MV4-11 acute myeloid leukemia xenograft; assay: MV4-11 AML xenograft model in mice; conditions: 25 mg/kg intraperitoneal 1×/day
Method: MV4-11 cells were plated in a 96-well tissue culture plate at a density of 4,500 cells/90 μL/well and incubated at 37° C./5% CO2 for 24 hr. Cells were then treated with compounds at various concentrations (a 10-point, 3-fold serial dilution series starting at 20 μM) with a final concentration of 0.5% DMSO/well and then incubated in 37° C./5% CO2 for 72 hr. 10 μL the cell proliferation reagent CCK-8 (WST-8) was added into each well and incubated at 37° C./5% CO2 for 3-4 hr and the absorbance at 450 nm measured with an En Vision Plate Reader.
MV4-11 acute myeloid leukemia and SU-DHL-4 diffuse large B-cell lymphoma (ATCC, #CRL-2957) cells were cultured in medium supplemented with 10% fetal bovine serum at 37° C./5% CO2. 5×10^6 MV-4-11 or 1×10^7 SU-DHL-4 cells were collected and re-suspended in 0.1 mL of serum-free media with Matrigel (1:1 v/v) per mouse for subcutaneous inoculation in isoflurane anesthetized male BALB/c nude or C.B-17 scid mice, respectively (treated in accordance with AAALAC animal welfare guidelines). When the average tumor volumes reached 100-200 mm^3, tumor volume outliers were removed and the remaining animals randomly divided into groups of 6-8 with similar average tumor volumes in each group. […] The appearance and behavior of each mouse was observed and recorded daily. Body weights and tumor volumes were measured and recorded every 2-4 days and the results were expressed as group means±SEM. Pairwise statistical comparisons between groups were performed by one-way ANOVA, and p<0.05 was considered statistically significant.

[2] = system: SU-DHL-4 diffuse large B-cell lymphoma xenograft; assay: SU-DHL-4 DLBCL xenograft model in mice
Method: 10 μL the cell proliferation reagent CCK-8 (WST-8) was added into each well and incubated at 37° C./5% CO2 for 3-4 hr and the absorbance at 450 nm measured with an En Vision Plate Reader.
5×10^6 MV-4-11 or 1×10^7 SU-DHL-4 cells were collected and re-suspended in 0.1 mL of serum-free media with Matrigel (1:1 v/v) per mouse for subcutaneous inoculation in isoflurane anesthetized male BALB/c nude or C.B-17 scid mice, respectively (treated in accordance with AAALAC animal welfare guidelines). When the average tumor volumes reached 100-200 mm^3, tumor volume outliers were removed and the remaining animals randomly divided into groups of 6-8 with similar average tumor volumes in each group. […] Animals were intravenously dosed at 25 mg/kg, 50 mg/kg or 100 mg/kg 1×/week for 3 or 4 weeks. The appearance and behavior of each mouse was observed and recorded daily. Body weights and tumor volumes were measured and recorded every 2-4 days and the results were expressed as group means±SEM. Pairwise statistical comparisons between groups were performed by one-way ANOVA, and p<0.05 was considered statistically significant.

[3] = 100 mg/kg intravenous 1×/week, after 4 weeks of dosing

CC(=O)N1CCC(CN2CCN(Cc3ccc(-n4c(O)nnc4-c4cc(C(C)C)c(O)cc4O)cc3)CC2)CC1 [HSP90 binder, 1-(4-((4-(4-(3-(2,4-dihydroxy-5-isopropylphenyl)-5-hydroxy-4H-1,2,4-triazol-4-yl)benzyl)piperazin-1-yl)methyl)piperidin-1-yl)ethan-1-one, reference compound]
Percentage BRD4 degradation vs untreated (BRD4): C (Degradation < 10%) | BRD4 degradation (in words) (BRD4): no substantial BRD4 degradation was observed

Cc1sc2c(c1C)C(c1ccc(Cl)cc1)=N[C@@H](CC(=O)NCCCCNC(=O)COc1cccc3c1C(=O)N(C1CCC(=O)NC1=O)C3=O)c1nnc(C)n1-2 (stereo partly shown) [dBET1]
BRD2 (% of control) (BRD2; 3 nM): 96.4 % of control | BRD2 (% of control) (BRD2; 10 nM): 94.9 % of control | BRD2 (% of control) (BRD2; 30 nM): 55.1 % of control | BRD2 (% of control) (BRD2; 100 nM): 9.3 % of control | BRD2 (% of control) (BRD2; 300 nM): 0.5 % of control | BRD3 (% of control) (BRD3; 3 nM): 89.7 % of control | BRD3 (% of control) (BRD3; 10 nM): 43.2 % of control | BRD3 (% of control) (BRD3; 30 nM): 14.5 % of control | BRD3 (% of control) (BRD3; 100 nM): 1.4 % of control | BRD3 (% of control) (BRD3; 300 nM): 0.3 % of control

Cc1sc2c(c1C)C(c1ccc(Cl)cc1)=N[C@@H](CC(=O)NCC(=O)NCC1CCN(C(=O)C3CCN(Cc4ccc(-n5c(O)nnc5-c5cc(C(C)C)c(O)cc5O)cc4)CC3)C1)c1nnc(C)n1-2 (stereo partly drawn) [Compound 47, 2-((S)-4-(4-chlorophenyl)-2,3,9-trimethyl-6H-thieno[3,2-f][1,2,4]triazolo[4,3-a][1,4]diazepin-6-yl)-N-(2-(((1-(1-(4-(3-(2,4-dihydroxy-5-isopropylphenyl)-5-hydroxy-4H-1,2,4-triazol-4-yl)benzyl)piperidine-4-carbonyl)pyrrolidin-3-yl)methyl)amino)-2-oxoethyl)acetamide, trifluoroacetic acid]
IC50 (MV4-11 cells): < 100 nM | BRD2 (% of control) (BRD2; 100 nM): 81.2 % of control | BRD2 (% of control) (BRD2; 300 nM): 102.2 % of control | BRD4 (% of control) (BRD4; 100 nM): 17.3 % of control | BRD4 (% of control) (BRD4; 300 nM): 9.6 % of control | BRD3 (% of control) (BRD3; 100 nM): 95.0 % of control | BRD3 (% of control) (BRD3; 300 nM): 91.4 % of control

(+)-JQ1 [reference compound]
BRD4 degradation (in words) (BRD4): no substantial BRD4 degradation was observed | tumor growth inhibition [1]: moderate tumor growth inhibition

Cc1sc2c(c1C)C(c1ccc(Cl)cc1)=N[C@@H](CC(=O)NCC(=O)NCC1CCN(C(=O)C3CCN(Cc4ccc(-n5c(O)nnc5-c5cc(C(C)C)c(O)cc5O)cc4)CC3)CC1)c1nnc(C)n1-2 [Compound 46, (S)-2-(4-(4-chlorophenyl)-2,3,9-trimethyl-6H-thieno[3,2-f][1,2,4]triazolo[4,3-a][1,4]diazepin-6-yl)-N-(2-(((1-(1-(4-(3-(2,4-dihydroxy-5-isopropylphenyl)-5-hydroxy-4H-1,2,4-triazol-4-yl)benzyl)piperidine-4-carbonyl)piperidin-4-yl)methyl)amino)-2-oxoethyl)acetamide, trifluoroacetic acid]
IC50 (MV4-11 cells): < 100 nM | Percentage BRD4 degradation vs untreated (BRD4): A (Degradation > 50%)

Cc1sc2c(c1C)C(c1ccc(Cl)cc1)=N[C@@H](CC(=O)NCCc1ccc(-n3c(O)nnc3-c3cc(C(C)C)c(O)cc3O)cc1)c1nnc(C)n1-2 [Compound 39, 2-((6S)-4-(4-chlorophenyl)-2,3,9-trimethyl-6H-thieno[3,2-f][1,2,4]triazolo[4,3-a][1,4]diazepin-6-yl)-N-(4-(3-(2,4-dihydroxy-5-isopropylphenyl)-5-hydroxy-4H-1,2,4-triazol-4-yl)phenethyl)acetamide]
IC50 (MV4-11 cells): < 100 nM | Percentage BRD4 degradation vs untreated (BRD4): C (Degradation < 10%)

CCc1cc(-c2nnc(O)n2-c2ccc(CN3CCN(CC4CCN(C(=O)C[C@@H]5N=C(c6ccc(Cl)cc6)c6c(sc(C)c6C)-n6c(C)nnc65)CC4)CC3)cc2)c(O)cc1O [Compound 1, 2-((6S)-4-(4-chlorophenyl)-2,3,9-trimethyl-6H-thieno[3,2-f][1,2,4]triazolo[4,3-a][1,4]diazepin-6-yl)-1-(4-((4-(4-(3-(5-ethyl-2,4-dihydroxyphenyl)-5-hydroxy-4H-1,2,4-triazol-4-yl)benzyl)piperazin-1-yl)methyl)piperidin-1-yl)ethanone]
Percentage BRD4 degradation vs untreated (BRD4): A (Degradation > 50%)

CCc1cc(-c2nnc(C(=O)NCC(F)(F)F)n2-c2ccc(CN3CCN(CC4CCN(C(=O)C[C@@H]5N=C(c6ccc(Cl)cc6)c6c(sc(C)c6C)-n6c(C)nnc65)CC4)CC3)cc2)c(O)cc1O.Cl [Compound 78, 4-(4-((4-((1-(2-((6S)-4-(4-chlorophenyl)-2,3,9-trimethyl-6H-thieno[3,2-f][1,2,4]triazolo[4,3-a][1,4]diazepin-6-yl)acetyl)piperidin-4-yl)methyl)piperazin-1-yl)methyl)phenyl)-5-(5-ethyl-2,4-dihydroxyphenyl)-N-(2,2,2-trifluoroethyl)-4H-1,2,4-triazole-3-carboxamide hydrochloride]
tumor growth inhibition (FIG. 4a) [2, 3]: significant tumor growth inhibition | tumor vs control (T/C) value [2, 3]: 28% | animal deaths and body weights (FIG. 4b) ([2]; any dose level, SU-DHL-4 xenograft): No animal deaths or significant effects on body weights were observed

Cc1cc(-c2nnc(O)n2-c2ccc(CN3CCN(CC4CCN(C(=O)C[C@@H]5N=C(c6ccc(Cl)cc6)c6c(sc(C)c6C)-n6c(C)nnc65)CC4)CC3)cc2)c(O)cc1O [Compound 9, 2-((6S)-4-(4-chlorophenyl)-2,3,9-trimethyl-6H-thieno[3,2-f][1,2,4]triazolo[4,3-a][1,4]diazepin-6-yl)-1-(4-((4-(4-(3-(2,4-dihydroxy-5-methylphenyl)-5-hydroxy-4H-1,2,4-triazol-4-yl)benzyl)piperazin-1-yl)methyl)piperidin-1-yl)ethanone, trifluoroacetic acid]
IC50 (MV4-11 cells): < 100 nM | Percentage BRD4 degradation vs untreated (BRD4): B (10% < Degradation = 10-50%)
